Measurements taken from patent US9340559B2, “Proteasome inhibitor delanzomib for use in the treatment of lupus” (Cephalon, Inc., priority 2011, dated 2016).

Key:
Assay type in all cases: in vivo, mouse
MRL/lpr mice [1] = assay: Antibody secreting B-cell Elispot (anti-Smith Ag, anti-dsDNA, anti-chromatin ASC), spleens of MRL/lpr mice
Procedure: FIG. 9 depicts frequency of anti-Smith antigen and anti-dsDNA antibody secreting cells in the spleens of MRL/lpr mice. MRL/lpr treated mice spleens were processed for splenocytes for ex vivo Elispot assays. Elispot wells were coated with 10 μg/mL of smith antigen, dsDNA or ovalbumin protein. Fresh, whole splenocytes were added to each well at 500,000 cells per well in cell culture medium. Cells were incubated overnight at 37° C. Developed wells provided spots that were counted as frequency of ASCs per million splenocytes.
FIG. 10 depicts the frequency of anti-chromatin antibody secreting cells in the spleens of MRL/lpr mice. MRL/lpr treated mice spleens were processed for splenocytes for ex vivo Elispot assays. Elispot wells were coated with 10 μg/mL of boiled chicken chromatin or ovalbumin protein. Fresh, whole splenocytes were added to each well at […] cells per well in cell culture medium. Cells were incubated overnight at 37° C. Developed wells provided spots that were counted as frequency of ASCs per million splenocytes.
B-cell Elispot components are ordered from MabTech (Nacka Strand, Sweden) and nitrocellulose IP filter plates are ordered from Millipore (Billerica, Mass.). Elispot wells are coated with either purified bovine thymus dsDNA (Sigma), purified bovine Smith antigen (GenWay) or boiled filtered purified chicken chromatin from lysed chicken red blood cells (Rockland, Gilbertsville, Pa.) at 10 μg/mL. Spleens are processed using glass homogenization, filtered through a 60 μm sterile cell strainer and red blood cells (RBCs) lysed using BioLegend (San Diego, Calif.) lysis buffer. Processed splenocytes are added to each well in culture medium. To avoid skewing of true ex vivo frequencies of antibody secreting cell types (ASCs), cells are not stimulated with a polyclonal mitogen like LPS, but rather incubated in media alone to allow monitoring of genuine ex vivo antibody release. Anti-mouse pan-IgG is used as a positive control for total IgG producing ASCs and is used to normalize results. Frequencies for each antigen are identified in an initial test phase for each model. For chromatin and total IgG only, 30,000 splenocytes are added to each well; for Smith antigen and dsDNA, 500,000 cells are added to each well. Different numbers of splenocytes are added for different antigens due to saturation limits of spot frequencies per well. These limits are previously established. B-cell Elispots are incubated overnight at 37° C. To develop each assay, secondary antibody is added to each well, incubated, washed and alkaline phosphatase strepavidin is used as the conjugate; substrate used is BCIP-NBT. Plates are developed until spots are visible. All Elispot analyses are performed using an Immunospot C.T.L. scanner and Biospot software (Cellular Technology Ltd., Shaker Heights, Ohio). Results are shown as values from which media and cells only wells are subtracted. Some values are negative due to high background.

MRL/lpr mice [2] = assay: Splenomegaly (spleen mass), MRL/lpr mice
Procedure: FIG. 5 depicts splenomegaly for MRL/lpr mice across treatment groups for the study duration. MRL/lpr mice were treated as outlined in the legend. The spleen masses for all mice that survived until the end of the experiment are graphed. Each symbol represents the spleen weight for one mouse at 25 weeks of age.
Mice are tracked on an individual basis.
Vehicle alone is provided orally twice weekly (p.o.). Both proteasome inhibitors are suspended in the vehicle solution. […] In addition, urine proteinuria is determined for all animals.
Vehicle was 3% DMSO/10% Solutol/87% PBS.

NZM mice [3] = assay: Urinalysis: total urine protein (proteinuria), NZM mice (Example 2)
NZM mice [4] = assay: Renal histopathology scoring (kidney IC-GN), NZM mice (Example 2)
Procedure: For histological analyses, the left kidney from each animal is removed and fixed in 10% buffered neutral formalin (EMD) for 48 hours on an orbital rocker at 25° C., then washed overnight with running dH2O and stored in 70% ethanol at 4° C. until ready to be processed. Kidney stains used for histological analyses included hematoxylin and eosin (H&E), Periodic Acid Schiff (PAS) and Trichrome stains (Wistar Institute, Philadelphia, Pa.). All 3 stained sections are used by the pathologist for scoring purposes. All histological scoring is performed blinded and by an independent board certified veterinary medical pathologist (Julie Engiles, VMD, DACVP). Multiple stains are used to determine score values. Images in FIG. 39 show worst affected area of section selected blindly by the pathologist.
Kidney IC-GN Scoring Method (Smith, Dong et al. 2007):
1. Glomerular cellularity—Score 1-5: Null, low, moderate, high, severe
2. Glomerular necrosis—Score 1-5: Null, low, moderate, high, severe
3. Glomerulosclerosis—Score 1-5: Null, low, moderate, high, severe
4. Interstitial infiltration—Score 1-5: Null, low, moderate, high, severe
5. Tubular atrophy—Score 1-5: Null, low, moderate, high, severe
6. Interstitial fibrosis—Score 1-5: Null, low, moderate, high, severe
7. Vasculitis—Score 1-5: Null, low, moderate, high, severe
Specific Pathologist Definitions: • Necrosis is defined by the presence of nuclear debris/pyknosis within the glomerular tuft indicative of “necrosis.” In many samples, this is a very mild, rare finding within only a very few segments of the glomerular tuft. Also consider effacement of the glomerular tuft by PAS positive, Trichrome negative material necrosis. • Glomerular sclerosis is defined by increased fibroplasia or fibrosis within the glomerular tuft or capsule. […] Most of the vascular changes are mild and could be considered “arteriosclerosis” characterized by proliferation of the smooth muscle cells, and hyalinization of the extracellular matrix. This change may reflect hypertension secondary to glomerular pathology. In very few animals is there overt “vasculitis.” Most inflammatory changes are within the walls of the blood vessels, with little to no damage to the endothelium, and no overt hemorrhage/fibrin leakage. Many also have perivascular rims of fibroblasts.

CC(C)C[C@H](NC(=O)[C@H](Cc1ccccc1)NC(=O)c1cnccn1)B(O)O [bortezomib, reference compound]
ASC EOS Smith Ag, percent change vs vehicle (MRL/lpr mice [1]; G4: 0.5 mg/kg iv, 1× wk): −74% | ASC EOS chromatin, percent change vs vehicle (MRL/lpr mice [1]; G4: 0.5 mg/kg iv, 1× wk): −64% | ASC EOS dsDNA, percent change vs vehicle (MRL/lpr mice [1]; G4: 0.5 mg/kg iv, 1× wk): −58% | ASC EOS Smith Ag, percent change vs vehicle (MRL/lpr mice [1]; G5: 0.3 mg/kg iv, 2× wk): +73% | ASC EOS chromatin, percent change vs vehicle (MRL/lpr mice [1]; G5: 0.3 mg/kg iv, 2× wk): +5% | ASC EOS dsDNA, percent change vs vehicle (MRL/lpr mice [1]; G5: 0.3 mg/kg iv, 2× wk): +219% | EOS spleen mass, percent change vs vehicle (MRL/lpr mice [2]; G4: 0.5 mg/kg iv, 1× wk): −68% | EOS spleen mass, percent change vs vehicle (MRL/lpr mice [2]; G5: 0.3 mg/kg iv, 2× wk): −44% | Urine proteinuria AUC, percent change vs vehicle (NZM mice [3]; G3 0.3 mg/kg ip, 1× wk): 30% | Urine proteinuria AUC, percent change vs vehicle (NZM mice [3]; G4 0.3 mg/kg ip, 2× wk): −57% | Kidney glomerular cellularity, percent change vs vehicle (NZM mice [4]; G3 0.3 mg/kg ip, 1× wk): −12% | Kidney glomerular necrosis, percent change vs vehicle (NZM mice [4]; G3 0.3 mg/kg ip, 1× wk): 18% | Kidney glomerulosclerosis, percent change vs vehicle (NZM mice [4]; G3 0.3 mg/kg ip, 1× wk): 8% | Kidney interstitial fibrosis, percent change vs vehicle (NZM mice [4]; G3 0.3 mg/kg ip, 1× wk): −5% | Kidney interstitial infiltration, percent change vs vehicle (NZM mice [4]; G3 0.3 mg/kg ip, 1× wk): −15% | Kidney tubular atrophy, percent change vs vehicle (NZM mice [4]; G3 0.3 mg/kg ip, 1× wk): −6% | Kidney vasculitis, percent change vs vehicle (NZM mice [4]; G3 0.3 mg/kg ip, 1× wk): −21% | p, interstitial infiltration (II) vs G7 Vehicle (NZM mice [4]; G4 0.3 mg/kg 2× wk): p < 0.05 | Kidney glomerular cellularity, percent change vs vehicle (NZM mice [4]; G4 0.3 mg/kg ip, 2× wk): −21% | Kidney glomerular necrosis, percent change vs vehicle (NZM mice [4]; G4 0.3 mg/kg ip, 2× wk): 3% | Kidney glomerulosclerosis, percent change vs vehicle (NZM mice [4]; G4 0.3 mg/kg ip, 2× wk): −29% | Kidney interstitial fibrosis, percent change vs vehicle (NZM mice [4]; G4 0.3 mg/kg ip, 2× wk): −22% | Kidney interstitial infiltration, percent change vs vehicle (NZM mice [4]; G4 0.3 mg/kg ip, 2× wk): −44% | Kidney tubular atrophy, percent change vs vehicle (NZM mice [4]; G4 0.3 mg/kg ip, 2× wk): −32% | Kidney vasculitis, percent change vs vehicle (NZM mice [4]; G4 0.3 mg/kg ip, 2× wk): −14% | interstitial infiltration reduction vs vehicle (NZM mice [4]; bortezomib treatment group (twice weekly dose)): 44% | decrease in renal histopathology score over several parameters vs vehicle (NZM mice [4]; mouse, in vivo): 6-14%

C[C@@H]1C[C@H]2[C@@H]3CCC4=CC(=O)C=C[C@]4(C)[C@@]3(F)[C@@H](O)C[C@]2(C)[C@@]1(O)C(=O)CO [dexamethasone, Dexamethasone, reference compound]
ASC EOS Smith Ag, percent change vs vehicle (MRL/lpr mice [1]; G6: 1.5 mg/kg ip, 3× wk): +40% | ASC EOS chromatin, percent change vs vehicle (MRL/lpr mice [1]; G6: 1.5 mg/kg ip, 3× wk): −22% | ASC EOS dsDNA, percent change vs vehicle (MRL/lpr mice [1]; G6: 1.5 mg/kg ip, 3× wk): +129% | EOS spleen mass, percent change vs vehicle (MRL/lpr mice [2]; G6: 1.5 mg/kg ip, 3× wk): −71% | Urine proteinuria AUC, percent change vs vehicle (NZM mice [3]; G5 1.5 mg/kg ip, 3× wk): 27% | Kidney glomerular cellularity, percent change vs vehicle (NZM mice [4]; G5 1.5 mg/kg ip, 3× wk): −38% | Kidney glomerular necrosis, percent change vs vehicle (NZM mice [4]; G5 1.5 mg/kg ip, 3× wk): −16% | Kidney glomerulosclerosis, percent change vs vehicle (NZM mice [4]; G5 1.5 mg/kg ip, 3× wk): −17% | Kidney interstitial fibrosis, percent change vs vehicle (NZM mice [4]; G5 1.5 mg/kg ip, 3× wk): −36% | Kidney interstitial infiltration, percent change vs vehicle (NZM mice [4]; G5 1.5 mg/kg ip, 3× wk): −36% | Kidney tubular atrophy, percent change vs vehicle (NZM mice [4]; G5 1.5 mg/kg ip, 3× wk): −25% | Kidney vasculitis, percent change vs vehicle (NZM mice [4]; G5 1.5 mg/kg ip, 3× wk): −40% | p, glomerular cellularity (GC) vs G8 NZW/LacJ non-diseased (NZM mice [4]; G6 1.5 mg/kg 1× wk): p < 0.01 | p, glomerular necrosis (GN) vs G5 CTX 50 mg/kg 1× wk (NZM mice [4]; G6 1.5 mg/kg 1× wk): p < 0.05 | p, glomerular necrosis (GN) vs G8 NZW/LacJ non-diseased (NZM mice [4]; G6 1.5 mg/kg 1× wk): p < 0.01 | p, glomerular necrosis (GN) vs G9 NZM diseased baseline (NZM mice [4]; G6 1.5 mg/kg 1× wk): p < 0.05 | p, glomerulosclerosis (GS) vs G4 Bortezomib 0.3 mg/kg 2× wk (NZM mice [4]; G6 1.5 mg/kg 1× wk): p < 0.001 | p, glomerulosclerosis (GS) vs G5 CTX 50 mg/kg 1× wk (NZM mice [4]; G6 1.5 mg/kg 1× wk): p < 0.05 | p, glomerulosclerosis (GS) vs G8 NZW/LacJ non-diseased (NZM mice [4]; G6 1.5 mg/kg 1× wk): p < 0.001 | p, glomerulosclerosis (GS) vs G9 NZM diseased baseline (NZM mice [4]; G6 1.5 mg/kg 1× wk): p < 0.05 | p, interstitial fibrosis (IF) vs G5 CTX 50 mg/kg 1× wk (NZM mice [4]; G6 1.5 mg/kg 1× wk): p < 0.05 | p, interstitial fibrosis (IF) vs G8 NZW/LacJ non-diseased (NZM mice [4]; G6 1.5 mg/kg 1× wk): p < 0.05 | p, interstitial infiltration (II) vs G4 Bortezomib 0.3 mg/kg 2× wk (NZM mice [4]; G6 1.5 mg/kg 1× wk): p < 0.01 | p, interstitial infiltration (II) vs G5 CTX 50 mg/kg 1× wk (NZM mice [4]; G6 1.5 mg/kg 1× wk): p < 0.05 | p, interstitial infiltration (II) vs G8 NZW/LacJ non-diseased (NZM mice [4]; G6 1.5 mg/kg 1× wk): p < 0.05 | p, tubular atrophy (TA) vs G4 Bortezomib 0.3 mg/kg 2× wk (NZM mice [4]; G6 1.5 mg/kg 1× wk): p < 0.01 | p, tubular atrophy (TA) vs G5 CTX 50 mg/kg 1× wk (NZM mice [4]; G6 1.5 mg/kg 1× wk): p < 0.05 | p, tubular atrophy (TA) vs G8 NZW/LacJ non-diseased (NZM mice [4]; G6 1.5 mg/kg 1× wk): p < 0.01
